Measurements: patent US7772260B2, “Imidazo[2,1-b]-1,3,4-thiadiazole sulfonamides” (Aegera Therapeutics Inc., priority 2001, dated 2010)
Structures can show the parent of a compound that is named as a salt.

What was measured:
SCG neurons = assay: cells; assay type: cell-based, Sprague Dawley rats; conditions: for IC50: Rattus norvegicus, Neuron, Taxol™ (50 ng/mL), viability 48 hours later, MTS, read-out: IC(50), protection of SCG neurons from Taxol killing; for inhibition of Taxol™ induced killing of SCGs: concentrations as high as 50 μM
Procedure: Taxol™ is regularly used in breast cancer chemotherapy. In cancer cells Taxol™ binds to the cyto-skeletal protein tubulin, thereby inhibiting normal microtubular assembly and inducing cellular apoptosis. Despite its potency as an anti-tumour agent, Taxol™ is also toxic to neurons, inducing dose limiting peripheral neuropathies. The addition of Taxol™ (100 ng/mL) to cultured SCG neurons induces the degradation or loss of upwards of 80% of the neurons.
FIG. 1 illustrates the protection provided by compound 1 (referred to here as AEG3482) against Taxol™ induced killing. PI Sprague Dawley rat SCG neurons were cultured and incubated with NGF (50 ng/mL) for 5 days.

CA II = CA II (Homo sapiens, UniProt P00918); assay: CA II inhibition; assay type: biochemical; conditions: read-out: IC(50), CA II inhibition
Procedure: CA II inhabition was measured using the protocol described by Pocker, Y.'Stone, J. Biochemistry 1967, 6, 668.

Structure (SMILES) | IC50 (SCG neurons) | IC50 (CA II) | inhibition of Taxol™ induced killing of SCGs (SCG neurons)
NS(=O)(=O)c1nn2cc(-c3ccc(F)cc3)nc2s1 [Compound 4, 6-(4-Fluorophenyl)imidazo[2,1-b]-1,3,4-thiadiazole-2-sulfonamide] | 5000 nM | 217 nM | –
NS(=O)(=O)c1nn2cc(-c3ccc(F)c(F)c3)nc2s1 [Compound 5, 6-(3,4-Difluorophenyl)imidazo[2,1-b]-1,3,4-thiadiazole-2-sulfonamide] | 5000 nM | 192 nM | –
NS(=O)(=O)c1nn2cc(-c3c(F)c(F)c(F)c(F)c3F)nc2s1 [Compound 6, 6-(2,3,4,5,6-Pentafluorophenyl)imidazo[2,1-b]-1,3,4-thiadiazole-2-sulfonamide] | 3000 nM | 164 nM | –
CCSc1c(F)c(F)c(-c2cn3nc(S(N)(=O)=O)sc3n2)c(F)c1F [Compound 7, 6-(4-Ethylthio-2,3,5,6-tetrafluorophenyl)imidazo[2,1-b]-1,3,4-thiadiazole-2-sulfonamide] | 4000 nM | 581 nM | –
NS(=O)(=O)c1nn2cc(-c3c(F)c(F)c(SCc4ccccc4)c(F)c3F)nc2s1 [Compound 8, 6-(4-Benzylthio-2,3,5,6-tetrafluorophenyl)imidazo[2,1-b]-1,3,4-thiadiazole-2-sulfonamide] | 5000 nM | 1470 nM | –
NS(=O)(=O)c1nn2cc(-c3ccc(Cl)c(Cl)c3)nc2s1 [Compound 11, 6-(3,4-Dichlorophenyl)imidazo[2,1-b]-1,3,4-thiadiazole-2-sulfonamide] | 3000 nM | 1800 nM | –
NS(=O)(=O)c1nn2cc(-c3ccc(Cl)c(Cl)c3Cl)nc2s1 [Compound 12, 6-(2,3,4-trichlorophenyl)imidazo[2,1-b]-1,3,4-thiadiazole-2-sulfonamide] | 5000 nM | 1590 nM | –
NS(=O)(=O)c1nn2cc(-c3cccc(Br)c3)nc2s1 [Compound 13, 6-(3-bromophenyl)imidazo[2,1-b]-1,3,4-thiadiazole-2-sulfonamide] | 7000 nM | 4050 nM | –
NS(=O)(=O)c1nn2cc(-c3ccc(Br)cc3)nc2s1 [Compound 14, 6-(4-Bromophenyl)-imidazo[2,1-b]-1,3,4-thiadiazole-2-sulfonamide] | 5000 nM | 198 nM | –
COc1ccccc1-c1cn2nc(S(N)(=O)=O)sc2n1 [Compound 15, 6-(2-Methoxyphenyl)imidazo[2,1-b]-1,3,4-thiadiazole-2-sulfonamide] | 10000 nM | 152 nM | –
COc1cccc(-c2cn3nc(S(N)(=O)=O)sc3n2)c1 [Compound 16, 6-(3-Methoxyphenyl)imidazo[2,1-b]-1,3,4-thiadiazole-2-sulfonamide] | 5000 nM | 150 nM | –
COc1ccc(-c2cn3nc(S(N)(=O)=O)sc3n2)cc1 [Compound 17, 6-(4-Methoxyphenyl)imidazo[2,1-b]-1,3,4-thiadiazole-2-sulfonamide] | 3000 nM | 179 nM | –
COc1ccc(OC)c(-c2cn3nc(S(N)(=O)=O)sc3n2)c1 [Compound 18, 6-(2,5-Dimethoxyphenyl)imidazo[2,1-b]-1,3,4-thiadiazole-2-sulfonamide] | 20000 nM | 337 nM | –
COc1ccc(-c2cn3nc(S(N)(=O)=O)sc3n2)c(OC)c1 [Compound 19, 6-(2,4-Dimethoxyphenyl)imidazo[2,1-b]-1,3,4-thiadiazole-2-sulfonamide] | 15000 nM | 373 nM | –
NS(=O)(=O)c1nn2cc(-c3ccc4c(c3)OCO4)nc2s1 [Compound 20, 6-(1,3-Benzodioxol-5-yl)imidazo[2,1-b]-1,3,4-thiadiazole-2-sulfonamide] | 15000 nM | 404 nM | –
NS(=O)(=O)c1nn2cc(-c3ccc(O)c(O)c3)nc2s1 [Compound 22] | 25000 nM | 153 nM | –
NS(=O)(=O)c1nn2cc(-c3cccc(OC(F)(F)F)c3)nc2s1 [Compound 24, 6-(3-trifloromethoxyphenyl)imidazo[2,1-b]-1,3,4-thiadiazole-2-sulfonamide] | 7000 nM | 613 nM | –
NS(=O)(=O)c1nn2cc(-c3ccc(OC(F)(F)F)cc3)nc2s1 [Compound 25, 6-(4-trifloromethoxyphenyl)imidazo[2,1-b]-1,3,4-thiadiazole-2-sulfonamide] | 5000 nM | 302 nM | –
NS(=O)(=O)c1nn2cc(-c3cccc([N+](=O)[O-])c3)nc2s1 [Compound 37, 6-(3-Nitrophenyl)imidazo[2,1-b]-1,3,4-thiadiazole-2-sulfonamide] | 10000 nM | 199 nM | –
NS(=O)(=O)c1nn2cc(-c3ccc(Cl)c([N+](=O)[O-])c3)nc2s1 [Compound 38, 6-(3-nitro-4-chlorophenyl)imidazo[2,1-b]-1,3,4-thiadiazole-2-sulfonamide] | 3000 nM | 577 nM | –
NS(=O)(=O)c1nn2cc(-c3ccc(C(=O)O)cc3)nc2s1 [Compound 39] | – | 154 nM | –
N#Cc1cccc(-c2cn3nc(S(N)(=O)=O)sc3n2)c1 [Compound 41, 6-(3-cyanophenyl)imidazo[2,1-b]-1,3,4-thiadiazole-2-sulfonamide] | 3000 nM | 346 nM | –

Structure (SMILES) | IC50 (SCG neurons) | IC50 (CA II) | inhibition of Taxol™ induced killing of SCGs (SCG neurons)
N#Cc1ccc(-c2cn3nc(S(N)(=O)=O)sc3n2)cc1 [Compound 42, 6-(4-cyanophenyl)imidazo[2,1-b]-1,3,4-thiadiazole-2-sulfonamide] | 3000 nM | 272 nM | –
CS(=O)(=O)c1ccc(-c2cn3nc(S(N)(=O)=O)sc3n2)cc1 [Compound 43, 6-(4-(methylsulfonyl)phenyl)imidazo[2,1-b]-1,3,4-thiadiazole-2-sulfonamide] | – | 886 nM | –
CCN(CC)S(=O)(=O)c1ccc(-c2cn3nc(S(N)(=O)=O)sc3n2)cc1 [Compound 45] | – | 166 nM | –
NS(=O)(=O)c1nn2c(Br)c(C(F)(F)F)nc2s1 [Compound 134, 5-Bromo-6-trifluoromethylimidazo[2,1-b]-1,3,4-thiadiazole-2-sulfonamide] | 1000 nM | – | –
NS(=O)(=O)c1nn2c(Sc3ccccc3)c(-c3ccc4ccccc4c3)nc2s1 [Compound 135, 5-Thiophenyl-6-(2-naphthyl)imidazo[2,1-b]-1,3,4-thiadiazole-2-sulfonamide] | 7000 nM | – | –
Nc1nnc(Sc2c(-c3ccc4ccccc4c3)nc3sc(S(N)(=O)=O)nn23)s1 [Compound 136] | 5000 nM | – | –
CNS(=O)(=O)c1nn2cc(-c3c(F)c(F)c(F)c(F)c3F)nc2s1 [Compound 138, 6-(2,3,4,5,6-pentafluorophenyl)imidazo[2,1-b]-1,3,4-thiadiazole-2-N-methylsulfonamide] | 2000 nM | – | –
CN(C)S(=O)(=O)c1nn2cc(-c3c(F)c(F)c(F)c(F)c3F)nc2s1 [Compound 140, 6-(2,3,4,5,6-pentafluorophenyl)imidazo[2,1-b]-1,3,4-thiadiazole-2-N,N-dimethylsulfonamide] | 5000 nM | – | –
CCN(CC)S(=O)(=O)c1nn2cc(-c3cccc(OC)c3)nc2s1 [Compound 141] | > 30000 nM | – | –
CN(C)S(=O)(=O)c1nn2cc(-c3ccc(Br)cc3)nc2s1 [Compound 143, 6-(4-Bromophenyl)imidazo[2,1-b]-1,3,4-thiadiazole-2-N,N-dimethylsulfonamide] | 10000 nM | – | –
CN(C)S(=O)(=O)c1nn2c(Br)c(-c3ccc(Br)cc3)nc2s1 [Compound 144, hydrobromide] | 15000 nM | – | –
CN(C)S(=O)(=O)c1nn2cc(-c3cccc(O)c3)nc2s1 [Compound 145] | 20000 nM | – | –
CN(C)S(=O)(=O)c1nn2cc(-c3cccc(OC(=O)c4ccccc4)c3)nc2s1 [Compound 146, 6-(3-Benzoyloxyphenyl)imidazo[2,1-b]-1,3,4-thiadiazole-2-N,N-dimethylsulfonamide] | 20000 nM | – | –
CN(C)S(=O)(=O)c1nn2cc(-c3ccc4ccccc4c3)nc2s1 [Compound 147, 6-(2-Naphthyl)imidazo[2,1-b]-1,3,4-thiadiazole-2-N,N-dimethylsulfonamide] | 17000 nM | – | –
[N-]=[N+]=Nc1c(F)c(F)c(-c2cn3nc(S(N)(=O)=O)sc3n2)c(F)c1F [Compound 151, 6-(4-Azido-2,3,5,6-tetraflourophenyl)imidazo[2,1-b]-1,3,4-thiadiazole-2-sulfonamide] | 2000 nM | – | –
CN(C)S(=O)(=O)c1nn2cc(-c3c(F)c(F)c(N=[N+]=[N-])c(F)c3F)nc2s1 [Compound 152, 6-(4-azido-2,3,5,6-pentafluorophenyl)imidazo[2,1-b]-1,3,4-thiadiazole-2-N,N-dimethylsulfonamide] | 2000 nM | – | –
NS(=O)(=O)c1nn2cc(-c3ccc([N+](=O)[O-])cc3)nc2s1 [Compound 153, 6-(4-Nitrophenyl)imidazo[2,1-b]-1,3,4-thiadiazole-2-sulfonamide] | 5000 nM | – | –
CCN[C@H]1C[C@H](C)S(=O)(=O)c2sc(S(N)(=O)=O)cc21 [Dorzolamide, reference compound] | – | – | failed to significantly inhibit
CC(=O)Nc1ccc(S(=O)(=O)Nc2nnc(S(N)(=O)=O)s2)cc1 [N-acetylaminobenzolamide, reference compound] | – | – | failed to significantly inhibit
CC(=O)Nc1nnc(S(N)(=O)=O)s1 [acetazolamide, reference compound] | – | – | failed to significantly inhibit
Nc1ccc(S(=O)(=O)Nc2nnc(S(N)(=O)=O)s2)cc1 [aminobenzolamide, reference compound] | – | – | failed to significantly inhibit
CC(=O)/N=c1/sc(S(N)(=O)=O)nn1C [methazolamide, reference compound] | – | – | failed to significantly inhibit
